Values after ≈ are worked out from the molar mass of the structure shown.
Experiments:
[1] = Glass transition temperature Tg and morphology M by means of DSC; format: physicochemical
[2] = Decomposition temperature Td by means of TGA; format: physicochemical
physchem = settings: organic solvent or mixture
[3] = in vivo; cited from earlier work

Structure (SMILES)	glass transition temperature Tg [1] [°C]	decomposition temperature Td [2] [°C]	solubility (physchem; solubility L in chlorobenzene) [mg/mL]	solubility (physchem; solubility in Tetrahydrofuran) [mg/mL]	solubility (physchem; solubility in Toluene) [mg/mL]	solubility (physchem; solubility in Ethyl acetate) [mg/mL]	solubility (physchem; solubility in Anisole) [mg/mL]	LD50 [3] [mg/kg]
COc1ccc(N(c2ccc(OC)cc2)c2ccc(-c3ccc(N(c4ccc(OC)cc4)c4ccc(C5(c6ccc(N(c7ccc(OC)cc7)c7ccc(-c8ccc(N(c9ccc(OC)cc9)c9ccc(OC)cc9)cc8)cc7)cc6)CCCCC5)cc4)cc3)cc2)cc1 [ID452]	123	450	650 to 1300 (≈ 525 to 1050 mM)	300 to 600 (≈ 242 to 485 mM)	> 270	–	–	–
COc1ccc(N(c2ccc(-c3ccc(N(c4ccc(OC)cc4)c4ccc(-c5ccc(N(c6ccc(OC)cc6)c6ccc7c(c6)C(C)(C)c6ccccc6-7)cc5)cc4)cc3)cc2)c2ccc(-c3ccc(N(c4ccc(OC)cc4)c4ccc5c(c4)C(C)(C)c4ccccc4-5)cc3)cc2)cc1 [ID453]	156	440	450 to 700 (≈ 339 to 527 mM)	340 to 680 (≈ 256 to 512 mM)	170 to 230 (≈ 128 to 173 mM)	40 (≈ 30.1 mM)	–	–
COc1ccc(C(c2ccc(OC)cc2)c2ccc(N(c3ccc(OC)cc3)c3ccc(-c4ccc(N(c5ccc(OC)cc5)c5ccc(N(c6ccc(OC)cc6)c6ccc(OC)cc6)cc5)cc4)cc3)cc2)cc1 [ID480]	105	430	> 280	–	–	–	–	–
COc1ccc(N(c2ccc(OC)cc2)c2ccc3c(c2)C(C)(C)c2cc(N(c4ccc(OC)cc4)c4ccc(-c5ccc(N(c6ccc(OC)cc6)c6ccc7c(c6)C(C)(C)c6cc(N(c8ccc(OC)cc8)c8ccc(OC)cc8)ccc6-7)cc5)cc4)ccc2-3)cc1 [ID518]	150	430	400 to 800 (≈ 324 to 647 mM)	550 to 1100 (≈ 445 to 890 mM)	160 to 240 (≈ 129 to 194 mM)	> 400	–	–
CCN(CC)c1ccc(N(c2ccc(-c3ccc(N(c4ccc(OC)cc4)c4ccc(OC)cc4)cc3)cc2)c2ccc(-c3ccc(N(c4ccc(-c5ccc(N(c6ccc(OC)cc6)c6ccc(OC)cc6)cc5)cc4)c4ccc(N(CC)CC)cc4)cc3)cc2)cc1 [ID521]	138	420	400 to 550 (≈ 323 to 444 mM)	440 to 580 (≈ 356 to 469 mM)	500 to 1000 (≈ 404 to 808 mM)	90 to 110 (≈ 72.7 to 88.9 mM)	–	–
CCOc1ccc(N(c2ccc(C3=CCC(N(c4ccc(OC)cc4)c4ccc(-c5ccc(N(c6ccc(OC)cc6)c6ccc(-c7ccc(N(c8ccc(OCC)cc8)c8cccc9ccccc89)cc7)cc6)cc5)cc4)C=C3)cc2)c2cccc3ccccc23)cc1 (centres unmarked) [ID565]	143	450	> 900	> 850	400 to 800 (≈ 326 to 653 mM)	< 40	> 1000	–
CCCCC(CC)COc1ccc(N(c2ccc(-c3ccc(N(c4ccc(OC)cc4)c4ccc(OC)cc4)cc3)cc2)c2ccc(-c3ccc(N(c4ccc(OCC(CC)CCCC)cc4)c4ccc(-c5ccc(N(c6ccc(OC)cc6)c6ccc(OC)cc6)cc5)cc4)cc3)cc2)cc1 (centres unmarked) [ID568]	65	360	> 650	–	–	–	–	–
CCCCCCC1(CCCCCC)c2cc(N(c3ccc(OCC(CC)CCCC)cc3)c3ccc(-c4ccc(N(c5ccc(OC)cc5)c5ccc(OC)cc5)cc4)cc3)ccc2-c2ccc(N(c3ccc(OCC(CC)CCCC)cc3)c3ccc(-c4ccc(N(c5ccc(OC)cc5)c5ccc(OC)cc5)cc4)cc3)cc21 (centres unmarked) [ID569]	47	440	400 to 800 (≈ 261 to 522 mM)	–	–	–	–	–
COc1ccc(N(c2ccc(C)cc2)c2ccc(-c3ccc(N(c4ccc(OC)cc4)c4ccc(-c5ccc(N(c6ccc(OC)cc6)c6ccc(-c7ccc(N(c8ccc(C)cc8)c8ccc(OC)cc8)cc7)cc6)cc5)cc4)cc3)cc2)cc1 [ID572]	138	450	> 900	> 800	> 500	60 to 100 (≈ 53.4 to 89 mM)	> 400	–
COc1ccc(N(c2ccc(OC)cc2)c2ccc(-c3ccc(N(c4ccc(-c5ccc(N(c6ccc(-c7ccc(N(c8ccc(OC)cc8)c8ccc(OC)cc8)cc7)cc6)c6cc(F)c(OC)c(F)c6)cc5)cc4)c4cc(F)c(OC)c(F)c4)cc3)cc2)cc1 [ID629]	134	430	> 2000	> 2000	> 1500	> 1300	> 1500	–
Clc1ccccc1 [chlorobenzene]	–	–	–	–	–	–	–	2900
COc1ccc(N(c2ccc(OC)cc2)c2ccc3c(c2)C2(c4cc(N(c5ccc(OC)cc5)c5ccc(OC)cc5)ccc4-3)c3cc(N(c4ccc(OC)cc4)c4ccc(OC)cc4)ccc3-c3ccc(N(c4ccc(OC)cc4)c4ccc(OC)cc4)cc32)cc1 [spiro-MeOTAD, 2,2′,7,7′-tetrakis(N,N-di-p-methoxyphenyl-amine)-9,9′-spirobifluorene, reference compound]	120	440	200 to 230 (≈ 163 to 188 mM)	120 to 160 (≈ 97.9 to 131 mM)	100 (≈ 81.6 mM)	< 6	65 to 75 (≈ 53 to 61.2 mM)	–

Now from value to compound, other results behind:

glass transition temperature Tg [1] [°C]	decomposition temperature Td [2] [°C]	solubility (physchem; solubility L in chlorobenzene) [mg/mL]	solubility (physchem; solubility in Tetrahydrofuran) [mg/mL]	solubility (physchem; solubility in Toluene) [mg/mL]	solubility (physchem; solubility in Ethyl acetate) [mg/mL]	solubility (physchem; solubility in Anisole) [mg/mL]	Structure (SMILES)	LD50 [3] [mg/kg]
128	450	450 to 900 (≈ 391 to 782 mM)	> 500	240 to 350 (≈ 208 to 304 mM)	> 460	–	COc1ccc(N(c2ccc(-c3ccc(N(c4ccc(OC)cc4)c4ccc(-c5ccc(N(c6ccc(OC)cc6)c6ccc(C)c(C)c6)cc5)cc4)cc3)cc2)c2ccc(-c3ccc(N(c4ccc(OC)cc4)c4ccc(C)c(C)c4)cc3)cc2)cc1 [ID519]	–
158	450	900 to 1400 (≈ 723 to 1120 mM)	400 to 600 (≈ 321 to 482 mM)	490 to 980 (≈ 394 to 787 mM)	600 to 1200 (≈ 482 to 964 mM)	–	COc1ccc(N(c2ccc(OC)cc2)c2ccc(-c3ccc(N(c4ccc(OC)cc4)c4ccc5c(c4)c4cc(N(c6ccc(OC)cc6)c6ccc(-c7ccc(N(c8ccc(OC)cc8)c8ccc(OC)cc8)cc7)cc6)ccc4n5-c4ccccc4)cc3)cc2)cc1 [ID522]	–
141	450	1250 to 2500 (≈ 1070 to 2140 mM)	400 to 550 (≈ 343 to 471 mM)	900 to 1800 (≈ 771 to 1540 mM)	240 to 480 (≈ 206 to 411 mM)	–	COc1ccc(N(c2ccc(OC)cc2)c2ccc(-c3ccc(N(c4ccc(OC)cc4)c4ccc5c(c4)Cc4cc(N(c6ccc(OC)cc6)c6ccc(-c7ccc(N(c8ccc(OC)cc8)c8ccc(OC)cc8)cc7)cc6)ccc4-5)cc3)cc2)cc1 [ID523]	–
110	440	> 400	–	–	–	–	COc1ccc(N(c2ccc(OC)cc2)c2ccc(-c3ccc(N(c4ccc(OC)cc4)c4ccc(-c5ccc(N(c6ccc(OC)cc6)c6ccc(-c7ccc(N(c8ccc(OC)cc8)c8ccc(OC)cc8)cc7)cc6)s5)s4)cc3)cc2)cc1 [ID575]	–
134	440	> 1300	1000 to 2000 (≈ 845 to 1690 mM)	500 to 1000 (≈ 422 to 845 mM)	700 to 1400 (≈ 591 to 1180 mM)	500 to 1000 (≈ 422 to 845 mM)	COc1ccc(N(c2ccc(OC)cc2)c2ccc(-c3ccc(N(c4ccc(OC)cc4)c4ccc(-c5ccc(N(c6ccc(OC)cc6)c6ccc(-c7ccc(N(c8ccc(OC)cc8)c8ccc(OC)cc8)cc7)cc6)c(C)c5)cc4C)cc3)cc2)cc1 [ID631]	–

— US20110297235A1, “USE OF TRIARYLAMINE DERIVATIVES AS HOLE-CONDUCTING MATERIALS IN ORGANIC SOLAR CELLS AND ORGANIC SOLAR CELLS CONTAINING SAID TRIARYLAMINE DERIVATIVES” (BASF SE, priority 2009, published 2011)
